Experiment [1] relates to guinea pig tracheal chain preparations. In words: relaxation of spontaneous tone of guinea pig tracheal chain (ring) preparation, β-stimulant effect on airway smooth muscle. The conditions noted are these: for absolute separation ratio: atrial ED25 versus tracheal ED50, in vitro guinea pig preparations. The source says: (§1) Two in vitro test systems used for determining selective β-stimulant activity are: (1) effect on spontaneous tone of guinea pig tracheal chain preparations as a measure of β-stimulant (direct relaxant) effect on airway smooth muscle, and (2) effect on rate of spontaneously beating right atria of the guinea pig as a measure if β-stimulant effect on cardiac muscle.

Experiment [2] has as its system right atria of the guinea pig. Nature of the experiment: rate of spontaneously beating guinea pig right atria, β-stimulant effect on cardiac muscle. The conditions noted are these: Cavia porcellus, in vitro, read-out: ED25, increasing the rate of contraction of guinea pig right atria.
Source text: as §1

≈ marks a conversion by molar mass, not a printed value.

As to `CC(C)NCC(O)c1ccc(O)c(O)c1Cl` (stereo not drawn) [2-chloro-3,4-dihydroxy-α-(isopropylaminomethyl)-benzyl alcohol], the EC50 in experiment [1] (Cavia porcellus, in vitro, guinea pig tracheal ring preparation, read-out: ED50, relaxes the spontaneous tone of guinea pig tracheal ring preparation) amounted to 0.23 ng/mL (≈ 0.936 nM). Also, the absolute separation ratio in experiment [1] is 7. In addition, the “improvement of absolute separation ratio compared to d, 1-isoproterenol” value in experiment [1] (versus d, 1-isoproterenol in similar in vitro preparations) amounted to 14 fold. The EC25 in experiment [2] is 1.6 ng/mL (≈ 6.51 nM).

As to `CC(C)NCC(O)c1ccc(O)c(O)c1` (centres unmarked) [d, 1-isoproterenol, reference compound], the absolute separation ratio in experiment [1] was 0.5.

(Values after patent publication US3976695A, “Halogen substituted α-(aminoalkyl)-3,4-dihydroxybenzyl alcohols” (SmithKline Corporation, priority 1970, dated 1976).)
